Assay results published in patent publication US20230210755A1, “FUNCTIONAL SKIN COATING POLYMER” (The Johns Hopkins University, priority 2020, published 2023).

Assay: Extractables and leachables from UV absorber containing films in synthetic perspiration, quantitative 1H NMR
Assay type: physicochemical
Settings: control: UV filter post-added to extract of Comparative 1 film just prior to concentration (recovery)
Experimental: The films described hereinabove, including the comparative example were further characterized for their ability to retain their UV-filtering components under pseudo-physiological conditions with the potential to extract unbound or otherwise mobile UV-filtering compounds. In general, films were immersed in a gently agitated solution of artificial perspiration for 24 hours at room temperature. Following removal of the films, a small amount of dimethylsulfone was added to each extract solution before it was concentrated to dryness under vacuum (65° C./0 torr). The resulting residues were then taken up in DMSO-d6 and analyzed by quantitative ^1H NMR against the added internal standard (dimethylsulfone). The method was validated by control samples, which were prepared by spiking the extracts derived from silicone films made without UV-filtering compounds, with known amounts of UV-filtering compounds immediately prior to concentration under vacuum.
20-mL screw cap borosilicate vials were charged with 10 g of synthetic perspiration (purchased from Reagents). […] Samples were then analyzed using a Bruker 400 MHz NMR spectrometer. Quantitative determination of the extracted UV filter(s) was then made by comparing the relative integration of distinct resonances derived from the UV filtering compound(s) against that of the internal standard (dimethylsulfone).

UV filter found by 1H NMR: 98%
SMILES: CCCCC(CC)COC(=O)C=Cc1ccc(OC)cc1 (stereo not shown) [Octinoxate]
